Measured values published in the NIST ThermoML archive (doi:10.1016/j.fluid.2014.04.002).

Assay: xn = mol fraction of the nth substance listed
Conditions: 101 kPa, Liquid; for viscosity: Concentric cylinders viscometry; for mass density: Vibrating tube method

COCCOCCOCCOCCOC [2,5,8,11,14-pentaoxapentadecane] + CCOC(=O)C(C)O
Conditions	mass density [kg/m3]	viscosity [mPa·s]
288.15 K, x2 = 0	1016.7	4.353
288.15 K, x2 = 0.0999	1018.51	4.303
288.15 K, x2 = 0.1999	1020.55	4.265
288.15 K, x2 = 0.2999	1022.59	4.226
288.15 K, x2 = 0.3998	1024.79	4.176
288.15 K, x2 = 0.4999	1027.14	4.109
288.15 K, x2 = 0.6001	1029.57	4.027
288.15 K, x2 = 0.6998	1032.25	3.906
288.15 K, x2 = 0.8001	1034.95	3.746
288.15 K, x2 = 0.9	1037.37	3.53
293.15 K, x2 = 0	1012.06	3.795
293.15 K, x2 = 0.0999	1013.83	3.749
293.15 K, x2 = 0.1999	1015.83	3.713
293.15 K, x2 = 0.2999	1017.82	3.673
293.15 K, x2 = 0.3998	1019.98	3.623
293.15 K, x2 = 0.4999	1022.26	3.557
293.15 K, x2 = 0.6001	1024.61	3.478
293.15 K, x2 = 0.6998	1027.18	3.364
293.15 K, x2 = 0.8001	1029.8	3.219
293.15 K, x2 = 0.9	1032.09	3.028
298.15 K, x2 = 0	1007.42	3.348
298.15 K, x2 = 0.0999	1009.15	3.299
298.15 K, x2 = 0.1999	1011.11	3.266
298.15 K, x2 = 0.2999	1013.05	3.23
298.15 K, x2 = 0.3998	1015.17	3.181
298.15 K, x2 = 0.4999	1017.37	3.115
298.15 K, x2 = 0.6001	1019.64	3.036
298.15 K, x2 = 0.6998	1022.11	2.929
298.15 K, x2 = 0.8001	1024.63	2.8
298.15 K, x2 = 0.9	1026.8	2.633
303.15 K, x2 = 0	1002.79	2.983
303.15 K, x2 = 0.0999	1004.48	2.933
303.15 K, x2 = 0.1999	1006.39	2.9
303.15 K, x2 = 0.2999	1008.28	2.864
303.15 K, x2 = 0.3998	1010.34	2.815
303.15 K, x2 = 0.4999	1012.47	2.752
303.15 K, x2 = 0.6001	1014.66	2.681
303.15 K, x2 = 0.6998	1017.03	2.58
303.15 K, x2 = 0.8001	1019.45	2.463
303.15 K, x2 = 0.9	1021.49	2.311
308.15 K, x2 = 0	998.153	2.668
308.15 K, x2 = 0.0999	999.806	2.626
308.15 K, x2 = 0.1999	1001.67	2.593
308.15 K, x2 = 0.2999	1003.5	2.557
308.15 K, x2 = 0.3998	1005.51	2.511
308.15 K, x2 = 0.4999	1007.57	2.452
308.15 K, x2 = 0.6001	1009.68	2.385
308.15 K, x2 = 0.6998	1011.95	2.293
308.15 K, x2 = 0.8001	1014.25	2.184
308.15 K, x2 = 0.9	1016.16	2.046
313.15 K, x2 = 0	993.523	2.407
313.15 K, x2 = 0.0999	995.132	2.367
313.15 K, x2 = 0.1999	996.945	2.336
313.15 K, x2 = 0.2999	998.729	2.301
313.15 K, x2 = 0.3998	1000.64	2.257
313.15 K, x2 = 0.4999	1002.66	2.2
313.15 K, x2 = 0.6001	1004.68	2.137
313.15 K, x2 = 0.6998	1006.87	2.053
313.15 K, x2 = 0.8001	1009.04	1.953
313.15 K, x2 = 0.9	1010.8	1.827
318.15 K, x2 = 0	988.892	2.185
318.15 K, x2 = 0.0999	990.453	2.147
318.15 K, x2 = 0.1999	992.217	2.115
318.15 K, x2 = 0.2999	993.944	2.081
318.15 K, x2 = 0.3998	995.8	2.041
318.15 K, x2 = 0.4999	997.738	1.991
318.15 K, x2 = 0.6001	999.671	1.932
318.15 K, x2 = 0.6998	1001.77	1.854
318.15 K, x2 = 0.8001	1003.81	1.76
318.15 K, x2 = 0.9	1005.43	1.642
323.15 K, x2 = 0	984.262	2.003
323.15 K, x2 = 0.0999	985.775	1.972
323.15 K, x2 = 0.1999	987.487	1.943
323.15 K, x2 = 0.2999	989.156	1.91
323.15 K, x2 = 0.3998	990.94	1.87
323.15 K, x2 = 0.4999	992.806	1.818
323.15 K, x2 = 0.6001	994.651	1.763
323.15 K, x2 = 0.6998	996.689	1.69
323.15 K, x2 = 0.8001	998.562	1.605
323.15 K, x2 = 0.9	1000.06	1.496

CCOC(=O)C(C)O (stereo not drawn) [DL-ethyl lactate] + C1CCOC1
Conditions	mass density [kg/m3]	viscosity [mPa·s]
288.15 K, x1 = 0.1002	913.682	0.6267
288.15 K, x1 = 0.2001	932.177	0.7629
288.15 K, x1 = 0.3001	949.134	0.9181
288.15 K, x1 = 0.4001	964.944	1.095
288.15 K, x1 = 0.4999	979.595	1.313
288.15 K, x1 = 0.5999	993.315	1.58
288.15 K, x1 = 0.6999	1006.15	1.91
288.15 K, x1 = 0.7999	1018.13	2.309
288.15 K, x1 = 0.8997	1029.17	2.754
288.15 K, x1 = 1	1039.28	3.207
293.15 K, x1 = 0.1002	908.275	0.5901
293.15 K, x1 = 0.2001	926.796	0.7128
293.15 K, x1 = 0.3001	943.748	0.8562
293.15 K, x1 = 0.4001	959.567	1.013
293.15 K, x1 = 0.4999	974.209	1.2
293.15 K, x1 = 0.5999	987.924	1.426
293.15 K, x1 = 0.6999	1000.76	1.701
293.15 K, x1 = 0.7999	1012.74	2.028
293.15 K, x1 = 0.8997	1023.77	2.389
293.15 K, x1 = 1	1033.84	2.75
298.15 K, x1 = 0.1002	902.835	0.5622
298.15 K, x1 = 0.2001	921.368	0.6721
298.15 K, x1 = 0.3001	938.334	0.8003
298.15 K, x1 = 0.4001	954.154	0.9386
298.15 K, x1 = 0.4999	968.8	1.103
298.15 K, x1 = 0.5999	982.515	1.297
298.15 K, x1 = 0.6999	995.342	1.527
298.15 K, x1 = 0.7999	1007.32	1.799
298.15 K, x1 = 0.8997	1018.34	2.096
298.15 K, x1 = 1	1028.39	2.39
303.15 K, x1 = 0.1002	897.364	0.5357
303.15 K, x1 = 0.2001	915.916	0.6349
303.15 K, x1 = 0.3001	932.893	0.7493
303.15 K, x1 = 0.4001	948.718	0.8721
303.15 K, x1 = 0.4999	963.363	1.016
303.15 K, x1 = 0.5999	977.073	1.183
303.15 K, x1 = 0.6999	989.9	1.38
303.15 K, x1 = 0.7999	1001.88	1.607
303.15 K, x1 = 0.8997	1012.89	1.854
303.15 K, x1 = 1	1022.92	2.097
308.15 K, x1 = 0.1002	891.857	0.5111
308.15 K, x1 = 0.2001	910.441	0.6006
308.15 K, x1 = 0.3001	927.416	0.7023
308.15 K, x1 = 0.4001	943.254	0.8122
308.15 K, x1 = 0.4999	957.89	0.9381
308.15 K, x1 = 0.5999	971.596	1.084
308.15 K, x1 = 0.6999	984.431	1.255
308.15 K, x1 = 0.7999	996.411	1.449
308.15 K, x1 = 0.8997	1007.43	1.657
308.15 K, x1 = 1	1017.42	1.858
313.15 K, x1 = 0.1002	886.313	0.4852
313.15 K, x1 = 0.2001	904.918	0.5661
313.15 K, x1 = 0.3001	921.903	0.659
313.15 K, x1 = 0.4001	937.749	0.7575
313.15 K, x1 = 0.4999	952.388	0.8692
313.15 K, x1 = 0.5999	966.093	0.9979
313.15 K, x1 = 0.6999	978.93	1.146
313.15 K, x1 = 0.7999	990.912	1.313
313.15 K, x1 = 0.8997	1001.93	1.489
313.15 K, x1 = 1	1011.9	1.658
318.15 K, x1 = 0.1002	880.728	0.4556
318.15 K, x1 = 0.2001	899.348	0.5305
318.15 K, x1 = 0.3001	916.356	0.6187
318.15 K, x1 = 0.4001	932.209	0.7066
318.15 K, x1 = 0.4999	946.847	0.8068
318.15 K, x1 = 0.5999	960.559	0.92
318.15 K, x1 = 0.6999	973.398	1.052
318.15 K, x1 = 0.7999	985.384	1.196
318.15 K, x1 = 0.8997	996.4	1.348
318.15 K, x1 = 1	1006.36	1.491
323.15 K, x1 = 0.1002	875.1	0.4242
323.15 K, x1 = 0.2001	893.744	0.5003
323.15 K, x1 = 0.3001	910.77	0.5839
323.15 K, x1 = 0.4001	926.634	0.6648
323.15 K, x1 = 0.4999	941.277	0.755
323.15 K, x1 = 0.5999	954.994	0.8565
323.15 K, x1 = 0.6999	967.835	0.9727
323.15 K, x1 = 0.7999	979.827	1.103
323.15 K, x1 = 0.8997	990.842	1.235
323.15 K, x1 = 1	1000.79	1.349
